Assay results: US20210379197A1, “DUAL-TARGETING LIPID-POLYMER HYBRID NANOPARTICLES” (IUCF-HYU (INDUSTRY-UNIVERSITY COOPERATION FOUNDATION …, priority 2020, published 2021)

Tests used:
HO1 [1] = assay: Daunorubicin-responsive HO1 upregulation, THP-1 (Western blot); format: cell-based, human; conditions: THP-1, various concentrations of DNR, 24 h (FIG. 9a)
Protocol: (§1) THP-1 and U937 cells (4×10^5 cells mL^−1) were seeded and cultured in complete medium with various concentrations of DNR for 24 h. The cells were lysed using RIPA buffer and total protein was used for immunodetection by using anti-human HO1 and kactin antibodies (Cell Signaling Technology, Danvers, Mass., USA).

HO1 [2] = assay: Daunorubicin-responsive HO1 upregulation, U937 (Western blot); format: cell-based, human; conditions: U937, various concentrations of DNR, 24 h (FIG. 9a)
Protocol: as §1

With COc1cccc2c1C(=O)c1c(O)c3c(c(O)c1C2=O)C[C@@](O)(C(C)=O)C[C@@H]3O[C@H]1C[C@H](N)[C@H](O)[C@H](C)O1 [DNR, daunorubicin] the HO1 expression (HO1 [1]) was “overexpressed” and the HO1 expression (HO1 [2]) was “overexpressed”.
